# Source: US20260198497A1, “A BENZENE RING-SUBSTITUTED PYRIMIDINECARBOXYLIC ACID COMPOUND, PREPARATION METHOD THEREFOR, HERBICIDAL COMPOSITION AND APPLICATION THEREOF” (QINGDAO KINGAGROOT CHEMICAL COMPOUND CO., LTD., priority 2023, published 2026)
# Like-named read-outs stand apart in the source and are kept apart here.
# Columns and labels:
# Monochoria vaginalis [1] = assay: Activity assay of compositions, post-emergence spray of stems and leaves; type: in vivo; conditions: 21 days
# Method: The required active ingredient B was purchased from a reagent company or a technical material manufacturer or synthesized by a conventional method. […] The technical materials were all dissolved with acetone solvents and diluted with aqueous solution of 0.1% Tween® 80 emulsifier, which should be used immediately after dilution.
# Weeds were cultivated by a pot culture method. […] Weed seeds with plump and uniform grains were selected, soaked in lukewarm water at 25° C. for 6 hours, and accelerated to germinate in a 28° C. biochemical incubator (in darkness). The weed seeds that had just germinated were evenly placed on the surface of the soil and then covered with 0.5-1 cm soil according to the sizes of seeds.
# The weeds were cultured in a controllable sunlight greenhouse at 20-30° C., in natural light, and with relative humidity of 57%-72%. The soil was loam with an organic matter content of 1.63%, a pH value of 7.1, alkali-hydrolyzable nitrogen of 84.3 mg/kg, rapidly available phosphorus of 38.5 mg/kg, and rapidly available potassium of 82.1 mg/kg.
# Each treatment was repeated 4 times for 3 pots. Each pot was seeded with 20 weed seeds.
# The drugs were applied once in total in the experiment. When at the stage of 1.5-2 leaves, the weeds were thinned out to maintain 10 strains per pot. Thirty strains were kept in each treatment and then continued to be cultured until the Erigeron canadensis reached 10 cm tall and other weeds in their 3-4 leaf stage for further treatment.
# The well-cultured test materials were evenly placed on a 0.5 m^2 platform and foliage-sprayed by the 3WP-2000-type walking spray tower at a dosage of […] and a spray pressure of 0.3 MPa. After all the drug solution was sprayed, the air valve was closed. And 30 seconds later, the door of the spray tower was opened, and the nutritional bowl was taken out. Next, the air valve was opened, and the spray tube was cleaned by spraying 50 ml of water. The test materials were transferred to and routinely cultured in a greenhouse after the treatment.
# A method for investigating absolute numbers was employed. The whole seedlings of the survival weeds were cut along the soil surface with a blade, and the fresh weight of the weeds was weighed by an analytical balance. For dead weeds, the fresh weight thereof was considered zero.
# The investigation was performed 21 days after the treatment for once in total.
# The theoretical fresh weight inhibition rate of a mixed combination of each treatment was calculated by the Gowing method (E0=X+Y−X*Y/100). Then compared with the measured inhibition rate (E), the type of the combined action of the combination of the two on weeds was evaluated, which was a synergistic effect when E−E0>10; an antagonistic effect when E−E0<−10%; an additional effect when −10≤E−E0≤[…]. An optimal ratio was determined according to factors such as the actual control effects, characteristics of herbicides, balance of the formulation, etc. In the formula, X represents the fresh weight inhibition rate of the active ingredient A in a dosage of P; Y represents the fresh weight inhibition rate of the active ingredient B in a dosage of Q. The statistical results are shown in Table 5 below.
# Veronica = assay: Post-emergence test on weeds; type: in vivo; design: key: 0 = no effect, 9 = completely dead (levels by growth control rate); conditions: 30 g a.i./ha, 3 weeks after application
# Excerpt: (§1) The criteria for activity levels of plant damage (i.e., growth control rate) are as follows: • Level 9: completely dead; • Level 8: growth control rate is greater than or equal to 90% and less than 100%; • Level 7: growth control rate is greater than or equal to 80% and less than 90%; • Level 6: growth control rate is greater than or equal to 70% and less than 80%; • Level 5: growth control rate is greater than or equal to 50% and less than 70%; • Level 4: growth control rate is greater than or equal to 30% and less than 50%; • Level 3: growth control rate is greater than or equal to 20% and less than 30%; • Level 2: growth control rate is greater than or equal to 10% and less than 20%; • Level 1: growth control rate is less than 10%; • Level 0: no effect.
# (§2) The above growth control rates are fresh weight control rates.
# (§3) Monocotyledonous and dicotyledonous weed seeds (Descurainia sophia, Capsella bursa-pastoris, Abutilon theophrasti, Galium spurium, Stellaria media, Lithospermum arvense, Rorippa indica, Alopecurus aequalis, Alopecurus japonicus, Eleusine indica, Beckmannia syzigachne, Sclerochloa dura, Erigeron canadensis, Phleum paniculatum, Veronica, Bromus japonicus, Aegilops tauschii, Phalaris arundinacea, Amaranthus retroflexus, Chenopodium, Commelina communis, Cichorium endivia, Convolvulus arvensis, Cirsium arvense, Solanum nigrum, Acalypha australis, Digitaria sanguinalis, Echinochloa crusgalli, Setaria viridis, Setaria pumila, Leptochloa chinensis, Monochoria vaginalis, Sagittaria trifolia, Schoenoplectiella juncoides, Cyperus rotundus, Cyperus iria, Cyperus difformis, Fimbristylis, Portulaca oleracea, Xanthium sibiricum, Ipomoea nil, Eschenbachia japonica, etc.) and major crop seeds (wheat, maize, paddy rice, soybean, cotton, oilseed rape, millet, sorghum, potato, sesame, castor plant, Chinese cabbage, radish, etc.) were placed in plastic pots filled with soil and then covered with 0.5-2 cm of soil to allow them to grow in a favorable greenhouse environment. Two weeks after sowing, the test plants were treated at the stage of 2-3 leaves. The test compounds of the present invention were individually dissolved with acetone, then added with Tween® 80, with 1.5 L/ha of methyl oleate emulsifiable concentrate as a synergist, diluted into solution of a certain concentration using a certain amount of water, and sprayed to plants using a spray tower. After drug application, the experimental results on weeds were collected after 3 weeks of cultivation in a greenhouse. The compounds were applied at 120, 60, 30, and 15 g a.i./ha in triplicate, and the results were averaged.
# Chinese cabbage = assay: Post-emergence test, crop safety; conditions: in vivo, 3 weeks
# Excerpt: as §1, §2, §3
# Maize = assay: Post-emergence test, crop safety; conditions: in vivo, 3 weeks
# Excerpt: as §1, §2, §3
# Oilseed rape = assay: Post-emergence test, crop safety; conditions: in vivo, 3 weeks
# Excerpt: as §1, §2, §3
# Paddy rice = assay: Post-emergence test, crop safety; conditions: in vivo, 3 weeks
# Excerpt: as §1, §2, §3
# Radish = assay: Post-emergence test, crop safety; conditions: in vivo, 3 weeks
# Excerpt: as §1, §2, §3
# Wheat = assay: Post-emergence test, crop safety; conditions: in vivo, 3 weeks
# Excerpt: as §1, §2, §3
# Bidens tripartita = assay: Control effect evaluation on weeds in paddy fields; type: in vivo; conditions: 75 g a.i./ha, paddy pot, 14th day after treatment, seeds resistant to pyrazosulfuron-ethyl
# Excerpt: as §1, §2
# (§4) After paddy field soil was loaded into a 1/1,000,000 ha pot, the seeds of Monochoria vaginalis, Pontederia korsakowii and Bidens tripartita were sowed and gently covered with soil, then left to stand in a greenhouse with water storage of 0.5-1 cm deep. The tuber of Sagittaria trifolia was planted on the next day or 2 days later. The water storage was kept at a depth of 3-4 cm thereafter. When the Monochoria vaginalis, Pontederia korsakowii and Bidens tripartita reached their 0.5-leaf stages and the Sagittaria trifolia reached the primary leaf stage, WP or SC aqueous dilutions of the compounds of the present invention formulated according to customary formulation methods were homogeneously dripped for treatment to the specified effective amount using pipettes.
# (§5) The effects were evaluated according to the above-mentioned criteria for activity levels.
# Monochoria vaginalis [2] = assay: Control effect evaluation on weeds in paddy fields; type: in vivo; conditions: 75 g a.i./ha, paddy pot, 14th day after treatment, seeds resistant to pyrazosulfuron-ethyl
# Excerpt: as §1, §2, §4, §5
# Pontederia korsakowii = assay: Control effect evaluation on weeds in paddy fields; type: in vivo; conditions: 75 g a.i./ha, paddy pot, 14th day after treatment, seeds resistant to pyrazosulfuron-ethyl
# Excerpt: as §1, §2, §4, §5
# [3] = test system: paddy rice (japonica rice); conditions: in vivo
# Excerpt: as §1, §2
# In addition, after being loaded into the 1/1,000,000 ha pot, the paddy field soil was leveled to keep the water storage at a depth of 3-4 cm. The paddy rice (japonica rice) at 3-leaf stage was transplanted at a transplanting depth of 3 cm on the next day. The compounds of the present invention were treated in the same manner as above on the 5th day after the transplantation.
# as §5
Compound,Control effect of B applied alone in a corresponding dose (%) (Monochoria vaginalis [1]; B 600 g a.i./ha),Control effect of B applied alone in a corresponding dose (%) (Monochoria vaginalis [1]; B 1200 g a.i./ha),"activity level of plant damage (growth control rate), Veronica (Veronica)","activity level of plant damage (growth control rate), Chinese cabbage (Chinese cabbage)","activity level of plant damage (growth control rate), Maize (Maize)","activity level of plant damage (growth control rate), Oilseed rape (Oilseed rape)","activity level of plant damage (growth control rate), Paddy rice (Paddy rice)","activity level of plant damage (growth control rate), Radish (Radish)","activity level of plant damage (growth control rate), Wheat (Wheat)","activity level, Bidens tripartita (Bidens tripartita)","activity level, Monochoria vaginalis (Monochoria vaginalis [2])","activity level, Pontederia korsakowii (Pontederia korsakowii)","activity level, Paddy rice ([3]; japonica, paddy rice, 21 days)","activity level, Paddy rice [3]",Control effect of B applied alone in a corresponding dose (%) (Monochoria vaginalis [1]; B 150 g a.i./ha),Control effect of B applied alone in a corresponding dose (%) (Monochoria vaginalis [1]; B 300 g a.i./ha)
"CCC(=O)Nc1ccc(Cl)c(Cl)c1 [Propanil, propanil]",22.1%,37.4%,,,,,,,,,,,,,,
COC(=O)c1nc(-c2ccc(C(F)(F)F)c(OC)c2F)nc(N)c1OC [Compound 3],,,9,0,0,0,0,0,0,9,9,9,0,,,
COC(=O)c1nc(-c2ccc(C(F)F)c(OC)c2F)nc(N)c1OC [Compound 4],,,9,,,,,,,9,9,9,,0,,
COc1c(N)nc(-c2ccc(C(F)(F)F)c(OC)c2F)nc1C(=O)ON=C(C)C [Compound 106],,,9,0,0,0,0,0,0,9,9,9,0,,,
CCOC(=O)c1nc(-c2ccc(C(F)(F)F)c(OC)c2F)nc(N)c1OC [Compound 24],,,9,0,0,0,0,0,0,9,9,9,0,,,
"CC(C)N1C(=O)c2ccccc2NS1(=O)=O [Bentazone, bentazone]",,,,,,,,,,,,,,,45.2%,60.5%
COc1c(N)nc(-c2ccc(C(F)(F)F)c(OC)c2F)nc1C(=O)OC1CC1 [Compound 116],,,9,0,0,0,0,0,0,9,9,9,0,,,
COc1c(N)nc(-c2ccc(C(F)(F)F)c(OC)c2F)nc1C(=O)OCC(F)(F)F [Compound 62],,,9,0,0,0,0,0,0,9,9,9,0,,,
COC(=O)c1nc(-c2ccc(C(F)(F)F)c(OC)c2Cl)nc(N)c1OC [Compound 2],,,9,,,,,,,9,9,9,,0,,
